Laboratory results: US4883814A, “1-aryloxy-3-(substituted alkylamino)-2-propanols and use as β-blocker” (Merck & Co., Inc., priority 1988, dated 1989)

What was measured:
[1] = target: T1, β2 (Cavia porcellus, UniProt Q8K4Z4); experiment: inhibition of isoproterenol-induced relaxation in isolated guinea pig tracheal chains contracted with PGF2α; conditions: vs isoproterenol-induced relaxation, read-out: pA2 values β2 (trachea) (converted)
T1 construct: isolated guinea pig tracheal chains; from tissue; host or cells: isolated guinea pig tracheal chains
T1 sequence (Q8K4Z4 whole entry): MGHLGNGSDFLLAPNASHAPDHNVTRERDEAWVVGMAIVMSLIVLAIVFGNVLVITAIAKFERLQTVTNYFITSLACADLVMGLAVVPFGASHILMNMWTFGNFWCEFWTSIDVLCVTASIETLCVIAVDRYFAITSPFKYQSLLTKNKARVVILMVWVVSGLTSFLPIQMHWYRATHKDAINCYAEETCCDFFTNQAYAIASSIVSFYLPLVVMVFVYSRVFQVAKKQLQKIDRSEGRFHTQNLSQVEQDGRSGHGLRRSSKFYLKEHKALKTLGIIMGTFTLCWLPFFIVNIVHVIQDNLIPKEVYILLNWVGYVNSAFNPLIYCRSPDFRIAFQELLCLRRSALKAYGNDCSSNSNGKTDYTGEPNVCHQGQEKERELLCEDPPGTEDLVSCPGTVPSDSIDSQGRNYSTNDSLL
Method: (§1) The in vitro β-adrenergic blocking properties of the novel compounds of this invention were evaluated in accordance with standard procedures. The interaction with the β1 -receptor was determined via inhibition of the positive chronotropic actions of isoproterenol in isolated guinea pig atrial preparations. β2 potency was determined by using isolated guinea pig tracheal chains contracted with PGF2α and by measuring inhibition of isoproterenol-induced relaxation.

[2] = tested on: β1 -receptor; experiment: inhibition of the positive chronotropic actions of isoproterenol in isolated guinea pig atrial preparations; conditions: β1 (atria) versus β2 (trachea), from pA2 values
Method: as §1

[3] = target: T2, β1 -receptor (Cavia porcellus, UniProt H0W3H1); experiment: as above; conditions: isolated guinea pig atria; vs isoproterenol positive chronotropic action; read-out: pA2 values β1 (atria) (converted)
T2 construct: isolated guinea pig atrial preparations; from tissue; host or cells: isolated guinea pig atria
T2 sequence (H0W3H1 1-470): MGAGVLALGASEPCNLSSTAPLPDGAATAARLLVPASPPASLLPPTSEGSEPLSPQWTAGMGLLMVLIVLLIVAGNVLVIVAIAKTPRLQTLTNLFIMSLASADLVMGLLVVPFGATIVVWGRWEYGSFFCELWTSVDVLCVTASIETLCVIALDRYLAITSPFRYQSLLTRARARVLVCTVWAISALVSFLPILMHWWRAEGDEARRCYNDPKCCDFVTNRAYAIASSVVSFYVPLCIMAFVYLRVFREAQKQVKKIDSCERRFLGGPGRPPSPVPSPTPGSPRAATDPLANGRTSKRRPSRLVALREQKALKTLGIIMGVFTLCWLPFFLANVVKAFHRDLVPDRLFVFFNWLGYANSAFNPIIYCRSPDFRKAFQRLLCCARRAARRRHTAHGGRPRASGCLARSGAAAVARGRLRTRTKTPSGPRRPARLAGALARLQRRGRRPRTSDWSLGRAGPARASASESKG
Method: as §1

SMILES | Kb [1] | Cardioselectivity ratio [2] | Kb [3]
N#Cc1ccccc1OCC(O)CNCCN1CCOCC1 (stereo not shown) | 138 nM | 5.9 | 23.4 nM
N#Cc1ccccc1OCC(O)CNCCN1CCNCC1 (stereo not shown) | 34700 nM | 1000 | 34.7 nM
N#Cc1ccccc1OCC(O)CNCCc1ccncc1 (stereo not shown) |  | 4.1 | 
N#Cc1ccccc1OCC(O)CNCCc1ccccn1 (stereo not shown) | 64.6 nM | 2.5 | 25.7 nM
N#Cc1ccccc1OCC(O)CNCCc1cccnc1 (stereo not shown) | 89.1 nM | 5.8 | 15.5 nM
